Source: patent US20220193241A1, “AGENT TARGETING DOUBLE-MEMBRANE ORGANELLE DNA” (CHIBA-PREFECTURE, priority 2019, published 2022)
Each block holds one compound with its values, some of them ahead of it.

Assays:
A549 cells [1] = assay: Synthetic lethality: cell morphology with CCC021-TPP and ABT-199 or A1155463; assay type: cell-based; details: single administration: 20 μM CCC021-TPP, 10 μM ABT-199, 10 μM A1155463; 4 days
Description: It was confirmed with the BCL2- and BCL-XL-specific inhibitor that the suppression of cell death in the cellular senescence of the A549 cells was presumably due to the BCL pathway. The type of BCL pathway inhibition, combined use of which could induce cell death (apoptosis) in the senescent cells of the A549 cells was studied. Five hundred A549 cells were inoculated to a 96-well plate and cultured for 24 hours. Then, change in cell morphology was photographed under an optical microscope either without administration (i.e., after DMSO treatment) or 4 days after treatment with 20 μM CCC021-TPP and 10 μM BCL2 inhibitor ABT-199 (compound venetoclax of No. 33 in FIG. 55-10) or 10 μM BCL-XL inhibitor A1155463 (compound of No. 16 in FIG. 55-6) each alone, or treatment by combined use of the same concentration of CCC021-TPP with the same concentration of ABT-199 or A1155463.

A549 cells [2] = assay: Synthetic lethality: cell morphology with CCC021-TPP and ABT-263; assay type: cell-based; details: each used alone: 20 μM CCC021-TPP, 10 μM ABT-263; days 2 and 4
Description: Since the suppression of cell death in the cellular senescence of the A549 cells was presumably due to the BCL pathway, it was believed that the apoptosis of cells whose cellular senescence was evoked by CCC021-TPP could be induced by combined use with ABT-263 (Cayman Chemical Company) serving as a senolytic drug and a BCL pathway inhibitor. Thus, the possibility of inducing the cell death of senescent cells by CCC021-TPP treatment and combined use with the BCL2/BCL-XL inhibitor ABT-263 was observed under an optical microscope to observe change in cell morphology. Five hundred A549 cells were inoculated to a 96-well plate, cultured for 24 hours, and then observed over time under an optical microscope either without administration or after administration of 20 μM CCC021-TPP and 10 μM ABT-263 each used alone or used concurrently, and cell morphology was photographed on days 2 and 4.

3243G High cells = assay: Mitochondrial autophagy (LC3 / cytochrome C immunostaining); assay type: cell-based, human; details: 100 nM, 52 hours after treatment
Description: In order to study whether the decrease in the number of mutant mtDNA by PIP-TPP was caused by mitochondrial autophagy reaction, the following experiment was conducted. The mtDNA mutation cell line 3243G High cells were inoculated at 2×10^4 cells/dish to a 35 mm glass base dish (IWAKI), cultured for 24 hours, and then treated with the compound (final concentration: 100 nM). 52 hours after treatment, the cells were fixed with 4% paraformaldehyde (PFA)/PBS at room temperature for 30 minutes. The cells thus fixed were washed with PBS and blocked with 10% FBS/0.1% Triton X100/TBS (TBST) for 10 minutes. TBS is a mixed solution of sodium chloride (final concentration: […]) and Tris (pH 7.4) (final concentration: […]). After the completion of blocking, the cells were reacted overnight at 4° C. with primary antibodies diluted with TBST. The primary antibodies used were a rabbit anti-LC3 antibody (Cell Signaling Technology, Inc.) diluted at 1:200, and a mouse anti-cytochrome C antibody (Thermo Fisher Scientific, USA) diluted at 1:500. After the completion of reaction with the primary antibodies, the cells were washed three times with TBS and reacted for 15 minutes with secondary antibodies diluted with TBST, i.e., Goat anti Rabbit Oregon Green 488 (Invitrogen) diluted at 1:1000 and Goat anti Mouse Alexa Fluor 647 (Invitrogen) diluted at 1:1000. […]

3243G Low cells [3] = assay: Total mitochondrial DNA copy number by PCR of COII gene; assay type: cell-based, human; details: 1 μM and 5 μM, 48- or 63-day treatment
Description: (§1) The 3243G Low cells were inoculated at 2×10^4 cells/well to a 35 mm dish (Falcon, USA), cultured for 24 hours, and then treated with CCC019-TPP (final concentration: 1 μM and 5 μM). The medium was replaced once two days, and CCC019-TPP was continuously administered. Further, 48 and 63 days later, DNA was extracted using Allprep DNA/RNA Mini Kit (QIAGEN, Germany) according to the instruction manual. The yield of the DNA thus extracted was measured using NANODROP 2000c (Thermo Fisher Scientific). DNA samples were prepared, and PCR reaction and analysis were conducted. The primers and reaction conditions used are shown below.
(§2) The reaction conditions were as follows.
After the completion of PCR reaction, PCR products were electrophoresed on 2% agarose gel and then stained with ethidium bromide to detect bands of the PCR products. The bands were quantified with analytical software (Image J).
In order to predict the total copy number of mtDNA in the 3243G Low cells treated with CCC019-TPP for 48 or 63 days, COII gene constituting mitochondrial respiratory chain complex IV was subjected to PCR.

3243G Low cells [4] = assay: Ratio between normal mtDNA and mutant mtDNA by PCR-RFLP; assay type: cell-based, human; details: 1 μM and 5 μM, 48- or 63-day treatment
Description: as §1, with “(Falcon),” for “(Falcon, USA),”, “(QIAGEN)” for “(QIAGEN, Germany)”, “2000™” for “2000c”, “was” for “and analysis were”
as §2
PCR products were treated with restriction enzyme ApaI as described below, and analyzed. The PCR products were purified using QIAquick PCR Purification Kit (QIAGEN) according to the instruction manual. After the purification, the yield of DNA was measured using NANODROP 2000c (Thermo Fisher Scientific). After the measurement, reaction products amplified in PCR System 9700 (Applied Biosystems, USA) GeneAmp(R) were treated with restriction enzyme Apal at 37° C. for 5 hours. After the completion of reaction, 15 ng of samples was electrophoresed on 2% agarose gel and then stained with ethidium bromide to detect bands of the PCR products. The bands were quantified with analytical software (Image J). […]

[5] = Skin penetrability confirmation experiment (anti-TPP immunohistochemical staining); assay type: in vivo, mice ICR; details: 18 hours
Description: Outbred mice ICR were purchased from Oriental Yeast Co., Ltd. The experiment was conducted by the administration of linear-chain PIP-TPP (CCC149-TPP) having a molecular weight of 1274.7 to the mouse back. The back skin of each 5-week-old ICR mouse was shaved. After confirmation that the hair growth cycle was not reached, DMSO containing no PIP-TPP, and solutions of PIP-TPP (dissolved in DMSO, dissolved in 95% DMSO/5% laurocapram (transdermal absorption promoter) and dissolved in 95% DMSO/5% laurocapram 24 hours after stratum corneum removal) adjusted so as to attain 30 mg/cm^2 were applied to 4 locations, respectively, of the back as shown in FIG. 28 at the age of 6 weeks. 18 hours later, the mouse was euthanized, and skin tissues were obtained and fixed in 4% paraformaldehyde. Then, paraffin blocks were prepared and co-stained by immunohistochemical staining with an anti-TPP antibody and DAPI staining of the nucleus to test the skin penetrability of the drug into cells and subcutaneous tissues.

C33A = assay: WST cell proliferation assay of library compounds; assay type: cell-based; details: Homo sapiens, C-33-A, 120 h, 5 days
Description: (§3) This compound can recognize the T4216C mutation of mitochondrial ND1 gene, and a uterine cervical cancer cell line C33A has this mutation. Cell proliferation assay with wild-type HeLa cells, which is also a uterine cervical cancer cell line, was conducted in the same manner as in Example 1. 1000 cells were inoculated to a 96-well plate, and CCC1283-TPP was administered at 0.5, 1, 5, 10, and 20 μM. 5 days later, WST assay was conducted.
as §3, with “CCCh531-TPP” for “CCC1283-TPP”
(§4) Compound CCCh560-TPP with a decacyclic structure targeting the A8860G polymorphism of mitochondrial gene ATP6 found in human populations, not acquired mitochondrial mutations in somatic cells, was studied for whether the suppression of cell proliferation was also found by 5-day treatment with the compound for the mitochondrial DNA polymorphism in cancer cell lines C33A, HeLa, Siha, Caski, and ME180 having this polymorphism in homoplasmy and human nontumor skin-derived fibroblast HDF cells. For this purpose, cell proliferation assay was conducted in the same manner as in Example 1. 1000 cells were inoculated to a 96-well plate, and CCCh560-TPP was administered at 0.5, 1, 5, 10, and 20 μM. 5 days later, WST assay was conducted.

HeLa cells = assay: WST cell proliferation assay of library compounds; assay type: cell-based; details: Homo sapiens, 120 h, 5 days
Description: as §3
as §3, with “CCCh531-TPP” for “CCC1283-TPP”
as §4

Structure (SMILES): CN(C)CC#Cc1ccc(OCCCc2sc(N3CCc4cccc(C(=O)Nc5nc6ccccc6s5)c4C3)nc2C(=O)O)c(F)c1 [A1155463, reference compound]
cell death (morphology) (A549 cells [1]): Any finding indicating cell death was not obtained

Structure (SMILES): CC1(C)CCC(c2ccc(Cl)cc2)=C(CN2CCN(c3ccc(C(=O)NS(=O)(=O)c4ccc(N[C@H](CCN5CCOCC5)CSc5ccccc5)c(S(=O)(=O)C(F)(F)F)c4)cc3)CC2)C1 [ABT-263, Navitoclax (ABT-263), reference compound]
cells that underwent apoptosis (morphology) (A549 cells [2]): not detected

Structure (SMILES): CC(=O)Nc1cn(C)c(C(=O)Nc2cn(C)c(C(=O)Nc3cn(C)c(C(=O)NCCC(=O)Nc4cc(C(=O)Nc5cc(C(=O)NCCCC(=O)Nc6cn(C)c(C(=O)Nc7cn(C)c(C(=O)Nc8cn(C)c(C(=O)NCCC(=O)Nc9cc(C(=O)Nc%10cc(C(=O)NCCC(=O)NCCCN(C)C)n(C)c%10)n(C)c9)n8)n7)n6)n(C)c5)n(C)c4)n3)n2)n1 [CCC018-TPP]
colocalization of autophagic marker LC3 with mitochondria (mitophagy) (3243G High cells): colocalization of the autophagic effect with mitochondria was clearly observed

Structure (SMILES): CN(C)CCCNC(=O)CCNC(=O)c1nc(NC(=O)c2nc(NC(=O)CCNC(=O)c3cc(NC(=O)c4nc(NC(=O)c5nc(NC(=O)CCCNC(=O)c6cc(NC(=O)c7cc(NC(=O)c8nc(NC(=O)CCNC(=O)c9cc(NC(=O)c%10cc(NC(=O)CCNC(=O)CCCC[P+](c%11ccccc%11)(c%11ccccc%11)c%11ccccc%11)cn%10C)cn9C)cn8C)cn7C)cn6C)cn5C)cn4C)cn3C)cn2C)cn1C [CCC019-TPP]
total copy number of mtDNA (3243G Low cells [3]): tendency to increase the total copy number of mtDNA | ratio between normal mtDNA and mutant mtDNA (3243G Low cells [4]): tendency to increase the proportion of wild-type mitochondrial DNA and decrease the proportion of mutant mitochondrial DNA

skin penetrability (anti-TPP stain) ([5]; applied to back skin, dissolved in DMSO): present in skin basement membrane cells
Structure (SMILES): CN(C)CCCNC(=O)CCNC(=O)c1cc(NC(=O)c2nc(NC(=O)CCNC(=O)c3nc(NC(=O)c4cc(NC(=O)c5nc(NC(=O)CCNC(=O)CCCC[P+](c6ccccc6)(c6ccccc6)c6ccccc6)cn5C)cn4C)cn3C)cn2C)cn1C [CCC149-TPP]
skin penetrability (anti-TPP stain) ([5]; 95% DMSO/5% laurocapram (transdermal absorption promoter)): stain of TPP was found in the perikaryon of subcutaneous tissues | skin penetrability (anti-TPP stain) ([5]; stratum corneum removal and 95% DMSO/5% laurocapram): more clearly found into the subcutaneous tissues and muscular coat

IC50 (HeLa cells): 11.8 µM
Structure (SMILES): CN(C)CCCNC(=O)CCNC(=O)c1cc(NC(=O)c2cc(NC(=O)c3nc(NC(=O)CCNC(=O)c4cc(NC(=O)c5cc(NC(=O)CCCNC(=O)c6nc(NC(=O)c7cc(NC(=O)CCNC(=O)c8cc(NC(=O)c9cc(NC(=O)c%10nc(NC(=O)CCNC(=O)CC[P+](c%11ccccc%11)(c%11ccccc%11)c%11ccccc%11)cn%10C)cn9C)cn8C)cn7C)cn6C)cn5C)cn4C)cn3C)cn2C)cn1C [CCCh531-TPP]
IC50 (C33A): 3.34 µM
